A value given as a limit tells only on which side of the number the result lay.

48 molecules from patent publication US20120040951A1, “HETEROARYL COMPOUNDS USEFUL AS RAF KINASE INHIBITORS” (priority 2008, published 2012) can be followed below.

In the experiment the test system is phospho-ERK in melanoma derived WM-266-4 cells. As to the kind of experiment: Mechanistic cellular assay for Raf kinase activity (phospho-ERK, Bio-Plex). Type of experiment: cell-based. Conditions: Homo sapiens, treated 1-2 hr at 37° C., serum free medium, read-out: pERK EC50. The text has this:
(2) Mechanistic Cellular Assay for Raf Kinase Activity
The following method was utilized for quantifying the amount of phospho-ERK in melanoma derived WM-266-4 cells (one allele each of wild type BRaf and mutant BRaf (V600D) as an indicator of Raf kinase activity in cells treated with various kinase inhibitors.
(1) Detached adhered WM-266-4 cells from flask using 0.25% Trypsin. Resuspended cells in growth media (90% RPMI 1640, 10% FBS) and determine cell density.
(2) Seeded cells @ 10,000 cells/well in 96-well (flat bottom) tissue culture plates (36,000 cells/cm^2). Added growth media to a final volume of 200 uL/well and incubated overnight at 37° C.
(1) Prepared compound dilutions (1000× in DMSO) as follows. Starting with a stock of 5 mM compound in DMSO, diluted serially 3-fold in DMSO for a total of eight concentrations (5 mM, 1.67 mM, 0.556 mM, 0.185 mM, 0.062 mM, 0.021 mM, 0.007 mM, 0.002 mM).
(2) Prepared compound-containing media by adding 1 mL treatment media (100% RPMI 1640 without FBS) to 1 μL of compound dilution (from step 3).
(3) Removed plates (from step 2) from incubator. Aspirated media and replace with 150 μL compound-containing media. Incubate for 1-2 hr at 37° C.
(4) Removed plates (from step 5) from incubator and treated each as follows: aspirated compound-containing media and replaced with 300 μL ice-cold 1×PBS, aspirated PBS and replaced with 45 μL lysis buffer (Biorad Bio-Plex lysis buffer containing 0.4% v/v lysis buff. Factor 1, 0.2% v/v lysis buff. Factor 2, and PMSF to 2 mM final concentration), and then placed plate on ice until all plates were treated.
(5) After all plates were processed (step 6), placed plates on an orbital shaker and shook at room temperature for at least 15 min.
(6) Finally, removed plates from shaker, and transfered 40 μL/well of lysate from each to new corresponding 96-well V-bottom plates. At this point, samples may be frozen and stored @−80 C.°.
(1) Thaw (if necessary) plates (from step 8) and added 40 μL of Phospho-Protein Assay Buffer to each 40 μL lysate for a 1:1 dilution.
(2) Prepared phospho-ERK1,2 Bioplex beads by diluting 1:50 with Bioplex Wash Buffer (mixing 49 μL Wash Buffer with 1 μL of phospho-ERK1,2 Bioplex beads for each sample to be analyzed). Protected from light by wrapping tube in aluminum foil and kept at room temperature.
(3) Prepared Filter Plate by adding 100 μL/well Bioplex Wash Buffer and removed by vacuum filtration.
(4) Add 50 μL of bead solution (from step 10) to each well of a prepared Filter Plate (from step 11) and vacuum filter. Wash/filter 2× with 100 μL/well Wash Buffer.
(5) Added 50 μL of each lysate to appropriate well of the Filter Plate (from step 12). For this and all subsequent plate incubation steps, placed plate on an inverted plate cover (reduces background), and wrapped in aluminum foil (to protect from light). Shook overnight at room temperature. Included positive (control lysate) and negative (lysis buffer) controls.
(1) Prepared detection antibody (phospho-ERK1,2 Ab) by diluting 1:25 with Detection Antibody Dilution Buffer Buffer (mixing 24 μL Detection Antibody Dilution Buffer with 1 μL of phospho-ERK1,2 Ab for each sample to be analyzed).
(2) Removed plate (from step 13) from shaker and vacuum filter. Washed/filter plate 3× with 100 μL/well Wash Buffer. Added 25 μL of diluted antibody to each well. Incubated on shaker at RT for 30-45 min.
(3) Prepared streptavidin-PE by diluting 1:100 with Wash Buffer (mixing 49.5 μL Wash Buffer with 0.5 μL of 100× streptavidin-PE for each sample to be analyzed). Protected from light.
(4) Removed plate (from step 15) from shaker and vacuum filter. Washed/filter plate 3× with 100 μL/well Wash Buffer. Add 50 μL of diluted streptavidin-PE solution (from step 16) to each sample well. Incubated on shaker for 10-20 min.
(5) Removed plate from shaker and vacuum filter. Wash/filter plate 3× with 100 μL/well Bead Resuspension Buffer. After last wash resuspended beads in 125 μL Bead Resuspension Buffer. […]
As a reminder, the EC50 is the concentration giving half of the maximal effect. Turning to `CC(NC(=O)c1cncc(Br)c1)c1ncc(C(=O)Nc2cc(C(F)(F)F)c(Cl)cn2)s1` (stereo not drawn) [Example 50], the EC50 lay within 1000 to 10000 nM.

As for `C[C@@H](NC(=O)c1ccc2[nH]cnc2c1)c1ncc(C(=O)Nc2cc(C(F)(F)F)c(Cl)cn2)s1` [Example 53], the EC50 lay within 100 to 1000 nM.

With `C[C@@H](NC(=O)c1ccc2nc(N)sc2c1)c1ncc(C(=O)Nc2cc(C(F)(F)F)c(Cl)cn2)s1` [Example 59], the EC50 is at most 100 nM.

As to `Cc1ccc2cc(C(=O)N[C@H](C)c3ncc(C(=O)Nc4cc(C(F)(F)F)c(Cl)cn4)s3)ccc2n1` [Example 60], the EC50 fell in the range of 100 to 1000 nM.

For `C[C@@H](NC(=O)c1ccc2ncsc2c1)c1ncc(C(=O)Nc2cc(C(F)(F)F)c(Cl)cn2)s1` [Example 61], the EC50 is at most 100 nM.

Consider `C[C@@H](NC(=O)c1ccc2nccnc2c1)c1ncc(C(=O)Nc2cc(C(F)(F)F)c(Cl)cn2)s1` [Example 63], for which the EC50 is at most 100 nM.

Take `C[C@@H](NC(=O)c1ccc2c(c1)NC(=O)CO2)c1ncc(C(=O)Nc2cc(C(F)(F)F)c(Cl)cn2)s1` [Example 66]: the concentration for a half-maximal effect (EC50) is at most 100 nM.

With `C[C@@H](NC(=O)c1ccc2c(ccn2C)c1)c1ncc(C(=O)Nc2cc(C(F)(F)F)c(Cl)cn2)s1` [Example 69], the EC50 is 1000 to 10000 nM.

Consider `C[C@@H](NC(=O)c1ccc2c(c1)OCCO2)c1ncc(C(=O)Nc2cc(C(F)(F)F)c(Cl)cn2)s1` [Example 70], for which the EC50 was in the range of 100 to 1000 nM.

Turning to `CC(C)Cn1cnc2cnc(C(=O)NC(C)c3cnc(Nc4ccc(C(F)(F)F)cc4)cn3)cc21` (stereo not drawn) [Example 79], the EC50 was in the range of 100 to 1000 nM.

Consider `CC(NC(=O)c1cc2c(cn1)ncn2C(C)C)c1cnc(Nc2ccc(C(F)(F)F)cc2)cn1` (stereo not drawn) [Example 80], for which the EC50 lay in the range of 100 to 1000 nM.

Turning to `C[C@@H](NC(=O)c1cnc2[nH]ccc2c1)c1ncc(C(=O)Nc2cc(C(F)(F)F)c(Cl)cn2)s1` [Example 81], the EC50 was at most 100 nM.

Regarding `CC(NC(=O)c1cnn2c1CCCC2)c1cnc(Nc2ccc(C(F)(F)F)cc2)s1` (stereo not drawn) [Example 83], the EC50 was at most 100 nM.

As to `CC(NC(=O)c1cnn2c1CCCC2)c1ncc(C(=O)Nc2cc(C(F)(F)F)c(Cl)cn2)s1` (stereo not drawn) [Example 84], the EC50 is at most 100 nM.

In the case of `C[C@@H](NC(=O)c1cnn2c1CCCC2)c1ncc(C(=O)Nc2cc(C(F)(F)F)c(Cl)cn2)s1` [Example 85], the EC50 is at most 100 nM.

Regarding `CC(NC(=O)c1cccc(N2CCOCC2)n1)c1ncc(C(=O)Nc2cc(C(F)(F)F)c(Cl)cn2)s1` (stereo not drawn) [Example 88], the EC50 lay in the range of 100 to 1000 nM.

Take `Cc1nc(-c2cnccn2)sc1C(=O)N[C@H](C)c1ncc(C(=O)Nc2cc(C(F)(F)F)c(Cl)cn2)s1` [Example 100]: the EC50 was in the range of 1000 to 10000 nM.

As to `C[C@@H](NC(=O)c1cnc(N)s1)c1ncc(C(=O)Nc2cc(C(F)(F)F)c(Cl)cn2)s1` [Example 102], the EC50 was at most 100 nM.

Regarding `CNc1ncc(C(=O)N[C@H](C)c2ncc(C(=O)Nc3cc(C(F)(F)F)c(Cl)cn3)s2)s1` [Example 104], the EC50 fell in the range of 100 to 1000 nM.

For `C[C@@H](NC(=O)c1cnc(NCCN2CCCC2)s1)c1ncc(C(=O)Nc2cc(C(F)(F)F)c(Cl)cn2)s1` [Example 105], the EC50 is 100 to 1000 nM.

For `C[C@@H](NC(=O)c1cn[nH]c1)c1ncc(C(=O)Nc2cc(C(F)(F)F)c(Cl)cn2)s1` [Example 112], the EC50 is 100 to 1000 nM.

For `Cc1[nH]ncc1C(=O)N[C@H](C)c1ncc(C(=O)Nc2cc(C(F)(F)F)c(Cl)cn2)s1` [Example 113], the EC50 lay in the range of 100 to 1000 nM.

For `Cc1c(C(=O)N[C@H](C)c2ncc(C(=O)Nc3cc(C(F)(F)F)c(Cl)cn3)s2)cnn1-c1ccccc1` [Example 114], the EC50 lay within 1000 to 10000 nM.

Take `Cc1c(C(=O)N[C@H](C)c2ncc(C(=O)Nc3cc(C(F)(F)F)c(Cl)cn3)s2)cnn1C` [Example 115]: the EC50 is at most 100 nM.

As for `C[C@@H](NC(=O)c1cnn(-c2cccnc2)c1)c1ncc(C(=O)Nc2cc(C(F)(F)F)c(Cl)cn2)s1` [Example 116], the EC50 fell in the range of 100 to 1000 nM.

With `C[C@@H](NC(=O)c1cnn(-c2ccccc2)c1)c1ncc(C(=O)Nc2cc(C(F)(F)F)c(Cl)cn2)s1` [Example 117], the EC50 was 1000 to 10000 nM.

`C[C@@H](NC(=O)c1cnn(-c2ccncc2)c1)c1ncc(C(=O)Nc2cc(C(F)(F)F)c(Cl)cn2)s1` [Example 120]: the EC50 lay within 100 to 1000 nM.

With `CCCn1ncc(C(=O)N[C@H](C)c2ncc(C(=O)Nc3cc(C(F)(F)F)c(Cl)cn3)s2)c1C` [Example 122], the EC50 is 100 to 1000 nM.

For `C[C@@H](NC(=O)c1cnn(C)c1Cl)c1ncc(C(=O)Nc2cc(C(F)(F)F)c(Cl)cn2)s1` [Example 124], the EC50 was at most 100 nM.

Turning to `C[C@@H](NC(=O)c1cnc2ccccn12)c1ncc(C(=O)Nc2cc(C(F)(F)F)c(Cl)cn2)s1` [Example 135], the EC50 was at most 100 nM.

As for `C[C@@H](NC(=O)c1cnc2ncccn12)c1ncc(C(=O)Nc2cc(C(F)(F)F)c(Cl)cn2)s1` [Example 137], the EC50 was 100 to 1000 nM.

With `C[C@@H](NC(=O)c1cncn1C)c1ncc(C(=O)Nc2cc(C(F)(F)F)c(Cl)cn2)s1` [Example 141], the EC50 lay within 100 to 1000 nM.

Consider `C[C@@H](NC(=O)c1c[nH]cn1)c1ncc(C(=O)Nc2cc(C(F)(F)F)c(Cl)cn2)s1` [Example 142], for which the EC50 was in the range of 1000 to 10000 nM.

For `C[C@@H](NC(=O)c1cn(C)cn1)c1ncc(C(=O)Nc2cc(C(F)(F)F)c(Cl)cn2)s1` [Example 143], the EC50 lay within 1000 to 10000 nM.

On to `C[C@@H](NC(=O)c1cncn1-c1ccccc1)c1ncc(C(=O)Nc2cc(C(F)(F)F)c(Cl)cn2)s1` [Example 144], for which the EC50 lay in the range of 100 to 1000 nM.

Turning to `CCn1cncc1C(=O)N[C@H](C)c1ncc(C(=O)Nc2cc(C(F)(F)F)c(Cl)cn2)s1` [Example 145], the EC50 lay in the range of 100 to 1000 nM.

Consider `Cc1ncc(C(=O)N[C@H](C)c2ncc(C(=O)Nc3cc(C(F)(F)F)c(Cl)cn3)s2)n1C` [Example 146], for which the EC50 is at most 100 nM.

Turning to `C[C@@H](NC(=O)c1cnc(N)n1C)c1ncc(C(=O)Nc2cc(C(F)(F)F)c(Cl)cn2)s1` [Example 147], the EC50 is at most 100 nM.

Consider `CCn1c(C(=O)N[C@H](C)c2ncc(C(=O)Nc3cc(C(F)(F)F)c(Cl)cn3)s2)cnc1N` [Example 149], for which the EC50 was at most 100 nM.

As to `CCn1c(C(=O)N[C@H](C)c2ncc(C(=O)Nc3cc(C(F)(F)F)c(Cl)cn3)s2)cnc1C` [Example 151], the EC50 is at most 100 nM.

Turning to `COCCn1c(C(=O)N[C@H](C)c2ncc(C(=O)Nc3cc(C(F)(F)F)c(Cl)cn3)s2)cnc1C` [Example 152], the half-maximal effective concentration (EC50) was at most 100 nM.

`C[C@@H](NC(=O)c1cnc(N)n1C1CC1)c1ncc(C(=O)Nc2cc(C(F)(F)F)c(Cl)cn2)s1` [Example 154]: the EC50 lay within 100 to 1000 nM.

On to `COc1ncc(C(=O)N[C@H](C)c2ncc(C(=O)Nc3cc(C(F)(F)F)c(Cl)cn3)s2)n1C` [Example 157], for which the EC50 was in the range of 1000 to 10000 nM.

As for `Cc1ncc(C(=O)N[C@H](C)c2ncc(C(=O)Nc3cc(C(F)(F)F)c(Cl)cn3)s2)n1C(C)C` [Example 158], the EC50 is at most 100 nM.

Turning to `Cc1ncc(C(=O)NC(C)c2ncc(C(=O)Nc3cc(C(F)(F)F)c(Cl)cn3)s2)n1-c1ccncc1` (stereo not drawn) [Example 159], the EC50 is at most 100 nM.

As for `CNc1ncc(C(=O)N[C@H](C)c2ncc(C(=O)Nc3cc(C(F)(F)F)c(Cl)cn3)s2)n1C` [Example 160], the EC50 lay in the range of 1000 to 10000 nM.

`Cc1ncc(C(=O)N[C@H](C)c2ncc(C(=O)Nc3cc(C(F)(F)F)c(Cl)cn3)s2)n1-c1ccccn1` [Example 161]: the EC50 lay within 100 to 1000 nM.

As to `Cc1ncc(C(=O)N[C@H](C)c2ncc(C(=O)Nc3cc(C(F)(F)F)c(Cl)cn3)s2)n1-c1cccnc1` [Example 162], the EC50 is at most 100 nM.
